Assay results: the NIST ThermoML archive (doi:10.1016/j.jct.2017.03.006)

How the values were obtained:
[1] = molar heat capacity at constant pressure; conditions: Liquid, Flow calorimetry
[2] = Liquid; for mass density: Vibrating tube method; for viscosity: Concentric cylinders viscometry

Cc1ccc(C)c(C)c1 [1,2,4-trimethylbenzene]
Conditions | mass density [kg/m3] | molar heat capacity at constant pressure [J/K/mol] | viscosity [mPa·s]
[1], 293.15 K, 100 kPa | – | 216.2 | –
[1], 293.15 K, 5000 kPa | – | 215 | –
[1], 293.15 K, 10000 kPa | – | 213.3 | –
[1], 293.15 K, 15000 kPa | – | 212.5 | –
[1], 293.15 K, 20000 kPa | – | 210.8 | –
[1], 293.15 K, 25000 kPa | – | 209.8 | –
[1], 313.15 K, 100 kPa | – | 222.5 | –
[1], 313.15 K, 5000 kPa | – | 221.2 | –
[1], 313.15 K, 10000 kPa | – | 219.6 | –
[1], 313.15 K, 15000 kPa | – | 218.5 | –
[1], 313.15 K, 20000 kPa | – | 217.7 | –
[1], 313.15 K, 25000 kPa | – | 217.1 | –
[1], 333.15 K, 100 kPa | – | 229.2 | –
[1], 333.15 K, 5000 kPa | – | 227.9 | –
[1], 333.15 K, 10000 kPa | – | 227.1 | –
[1], 333.15 K, 15000 kPa | – | 225.9 | –
[1], 333.15 K, 20000 kPa | – | 224.8 | –
[1], 333.15 K, 25000 kPa | – | 223.5 | –
[2], 273.15 K, 100 kPa | 891.7 | – | –
[2], 273.15 K, 1000 kPa | 892.3 | – | –
[2], 273.15 K, 2000 kPa | 892.9 | – | –
[2], 273.15 K, 5000 kPa | 894.6 | – | –
[2], 273.15 K, 10000 kPa | 897.4 | – | –
[2], 273.15 K, 15000 kPa | 900.2 | – | –
[2], 273.15 K, 20000 kPa | 902.8 | – | –
[2], 273.15 K, 30000 kPa | 908 | – | –
[2], 273.15 K, 40000 kPa | 912.9 | – | –
[2], 273.15 K, 50000 kPa | 917.5 | – | –
[2], 273.15 K, 60000 kPa | 921.9 | – | –
[2], 273.15 K, 70000 kPa | 926.2 | – | –
[2], 273.15 K, 80000 kPa | 930.3 | – | –
[2], 273.15 K, 90000 kPa | 934.2 | – | –
[2], 273.15 K, 100000 kPa | 938 | – | –
[2], 273.15 K, 110000 kPa | 941.7 | – | –
[2], 273.15 K, 120000 kPa | 945.2 | – | –
[2], 273.15 K, 130000 kPa | 948.6 | – | –
[2], 273.15 K, 140000 kPa | 952 | – | –
[2], 283.15 K, 100 kPa | 883.3 | – | –
[2], 283.15 K, 1000 kPa | 883.9 | – | –
[2], 283.15 K, 2000 kPa | 884.5 | – | –
[2], 283.15 K, 5000 kPa | 886.3 | – | –
[2], 283.15 K, 10000 kPa | 889.3 | – | –
[2], 283.15 K, 15000 kPa | 892.2 | – | –
[2], 283.15 K, 20000 kPa | 895 | – | –
[2], 283.15 K, 30000 kPa | 900.3 | – | –
[2], 283.15 K, 40000 kPa | 905.4 | – | –
[2], 283.15 K, 50000 kPa | 910.2 | – | –
[2], 283.15 K, 60000 kPa | 914.8 | – | –
[2], 283.15 K, 70000 kPa | 919.3 | – | –
[2], 283.15 K, 80000 kPa | 923.5 | – | –
[2], 283.15 K, 90000 kPa | 927.5 | – | –
[2], 283.15 K, 100000 kPa | 931.4 | – | –
[2], 283.15 K, 110000 kPa | 935.2 | – | –
[2], 283.15 K, 120000 kPa | 938.9 | – | –
[2], 283.15 K, 130000 kPa | 942.4 | – | –
[2], 283.15 K, 140000 kPa | 945.8 | – | –
[2], 293.15 K, 100 kPa | 875.1 | – | 0.888
[2], 293.15 K, 1000 kPa | 875.7 | – | –
[2], 293.15 K, 2000 kPa | 876.3 | – | –
[2], 293.15 K, 5000 kPa | 878.2 | – | –
[2], 293.15 K, 10000 kPa | 881.4 | – | –
[2], 293.15 K, 15000 kPa | 884.4 | – | –
[2], 293.15 K, 20000 kPa | 887.3 | – | –
[2], 293.15 K, 30000 kPa | 892.9 | – | –
[2], 293.15 K, 40000 kPa | 898.2 | – | –
[2], 293.15 K, 50000 kPa | 903.2 | – | –
[2], 293.15 K, 60000 kPa | 908 | – | –
[2], 293.15 K, 70000 kPa | 912.6 | – | –
[2], 293.15 K, 80000 kPa | 916.9 | – | –
[2], 293.15 K, 90000 kPa | 921.1 | – | –
[2], 293.15 K, 100000 kPa | 925.1 | – | –
[2], 293.15 K, 110000 kPa | 929 | – | –
[2], 293.15 K, 120000 kPa | 932.8 | – | –
[2], 293.15 K, 130000 kPa | 936.4 | – | –
[2], 293.15 K, 140000 kPa | 939.9 | – | –
[2], 303.15 K, 100 kPa | 867 | – | 0.779
[2], 303.15 K, 1000 kPa | 867.6 | – | –
[2], 303.15 K, 2000 kPa | 868.3 | – | –
[2], 303.15 K, 5000 kPa | 870.3 | – | –
[2], 303.15 K, 10000 kPa | 873.6 | – | –
[2], 303.15 K, 15000 kPa | 876.8 | – | –
[2], 303.15 K, 20000 kPa | 879.8 | – | –
[2], 303.15 K, 30000 kPa | 885.7 | – | –
[2], 303.15 K, 40000 kPa | 891.2 | – | –
[2], 303.15 K, 50000 kPa | 896.4 | – | –
[2], 303.15 K, 60000 kPa | 901.4 | – | –
[2], 303.15 K, 70000 kPa | 906.1 | – | –
[2], 303.15 K, 80000 kPa | 910.6 | – | –
[2], 303.15 K, 90000 kPa | 914.9 | – | –
[2], 303.15 K, 100000 kPa | 919.1 | – | –
[2], 303.15 K, 110000 kPa | 923.1 | – | –
[2], 303.15 K, 120000 kPa | 927 | – | –
[2], 303.15 K, 130000 kPa | 930.7 | – | –
[2], 303.15 K, 140000 kPa | 934.3 | – | –
[2], 313.15 K, 100 kPa | 859 | – | 0.692
[2], 313.15 K, 1000 kPa | 859.7 | – | –
[2], 313.15 K, 2000 kPa | 860.4 | – | –
[2], 313.15 K, 5000 kPa | 862.6 | – | –
[2], 313.15 K, 10000 kPa | 866 | – | –
[2], 313.15 K, 15000 kPa | 869.3 | – | –
[2], 313.15 K, 20000 kPa | 872.6 | – | –
[2], 313.15 K, 30000 kPa | 878.7 | – | –
[2], 313.15 K, 40000 kPa | 884.5 | – | –
[2], 313.15 K, 50000 kPa | 889.9 | – | –
[2], 313.15 K, 60000 kPa | 895 | – | –
[2], 313.15 K, 70000 kPa | 899.9 | – | –
[2], 313.15 K, 80000 kPa | 904.6 | – | –
[2], 313.15 K, 90000 kPa | 909 | – | –
[2], 313.15 K, 100000 kPa | 913.3 | – | –
[2], 313.15 K, 110000 kPa | 917.4 | – | –
[2], 313.15 K, 120000 kPa | 921.4 | – | –
[2], 313.15 K, 130000 kPa | 925.2 | – | –
[2], 313.15 K, 140000 kPa | 928.9 | – | –
[2], 323.15 K, 100 kPa | 851.3 | – | 0.62
[2], 323.15 K, 1000 kPa | 852 | – | –
[2], 323.15 K, 2000 kPa | 852.7 | – | –
[2], 323.15 K, 5000 kPa | 855 | – | –
[2], 323.15 K, 10000 kPa | 858.6 | – | –
[2], 323.15 K, 15000 kPa | 862.1 | – | –
[2], 323.15 K, 20000 kPa | 865.5 | – | –
[2], 323.15 K, 30000 kPa | 871.9 | – | –
[2], 323.15 K, 40000 kPa | 877.9 | – | –
[2], 323.15 K, 50000 kPa | 883.5 | – | –
[2], 323.15 K, 60000 kPa | 888.9 | – | –
[2], 323.15 K, 70000 kPa | 894 | – | –
[2], 323.15 K, 80000 kPa | 898.8 | – | –
[2], 323.15 K, 90000 kPa | 903.4 | – | –
[2], 323.15 K, 100000 kPa | 907.8 | – | –
[2], 323.15 K, 110000 kPa | 912 | – | –
[2], 323.15 K, 120000 kPa | 916.1 | – | –
[2], 323.15 K, 130000 kPa | 920 | – | –
[2], 323.15 K, 140000 kPa | 923.8 | – | –
[2], 333.15 K, 100 kPa | 843.6 | – | 0.562
[2], 333.15 K, 1000 kPa | 844.4 | – | –
[2], 333.15 K, 2000 kPa | 845.2 | – | –
[2], 333.15 K, 5000 kPa | 847.6 | – | –
[2], 333.15 K, 10000 kPa | 851.4 | – | –
[2], 333.15 K, 15000 kPa | 855.1 | – | –
[2], 333.15 K, 20000 kPa | 858.6 | – | –
[2], 333.15 K, 30000 kPa | 865.3 | – | –
[2], 333.15 K, 40000 kPa | 871.6 | – | –
[2], 333.15 K, 50000 kPa | 877.4 | – | –
[2], 333.15 K, 60000 kPa | 883 | – | –
[2], 333.15 K, 70000 kPa | 888.2 | – | –
[2], 333.15 K, 80000 kPa | 893.2 | – | –
[2], 333.15 K, 90000 kPa | 898 | – | –
[2], 333.15 K, 100000 kPa | 902.5 | – | –
[2], 333.15 K, 110000 kPa | 906.9 | – | –
[2], 333.15 K, 120000 kPa | 911.1 | – | –
[2], 333.15 K, 130000 kPa | 915.1 | – | –
[2], 333.15 K, 140000 kPa | 919 | – | –
